System: cardiac gene expression
Test: Microarray analysis of cardiac gene expression (GeneChip Mouse Genome 430 2.0)
Assay type: in vivo, mice
Procedure: Microarray Sample Preparation and Analysis. Animal hearts were rapidly removed, and the atria and right ventricles were cut and immediately plunged into TRIzol Reagent (Life Technologies). Total RNA was isolated following the manufacturer's instructions, purified by phenol-chloroform extraction and then ethanol precipitation, and 20 μg further processed for microarray analysis. Briefly, cDNA synthesis, in vitro transcription, and labeling and fragmentation to produce the oligonucleotide probes were performed as instructed by the GeneChip manufacturer (Affymetrix). The probes were first hybridized to a test array (Affymetrix) and then to the GeneChip Mouse Genome 430 2.0 Array, using the GeneChip Hybridization Oven 640. The chips were washed in a GeneChip Fluidics Station 450 (Affymetrix), and the results were visualized with a GeneChip G7 scanner (Affymetrix). RMA normalization, pairwise comparisons, Student's t test and Benjamini and Hochberg correction were subsequently performed using GeneSifter (VizX Labs, Seattle, Wash.) and Spotfire DecisionSite 8.3 (Spotfire, Inc., Somerville, Mass.).
Effects on Gene Expression Profile. […] One mouse heart was used for each array, and was performed in triplicate, generating a total of 12 arrays. GeneSifter was used to perform RMA normalization, pairwise comparisons of averaged signal intensity values, and Student's t-test with Benjamini and Hochberg correction, and Spotfire was used to perform pairwise comparisons. […] Additionally, genes that were altered between any two N or cardiac hypertrophy samples were removed, as these alterations most likely represented normal variations between mice.

## C[C@H]1c2cccc(O)c2C(=O)C2=C(O)[C@]3(O)C(=O)C(C(N)=O)=C(O)[C@@H](N(C)C)[C@@H]3[C@@H](O)[C@@H]21 [doxycycline]
GenBank BM245060, vs mice given only isoproterenol
  FC EST: −2.3
GenBank BM245170, vs mice given only isoproterenol
  FC Fos-like antigen 2 (Fosl2): −2.6
GenBank BM246377, vs mice given only isoproterenol
  FC ESTs: −1.9
GenBank BM899392, vs mice given only isoproterenol
  FC Cytoglobin (Cygb): 1.8
GenBank BM936480, vs mice given only isoproterenol
  FC Flavin containing monooxygenase 2 (Fmo2): −2.7
GenBank BM945528, heart, drug + isoproterenol vs isoproterenol-only mice, CH vs normal FC 1.6
  FC Tripartite motif protein 24 (Trim24): −1.8 fold
GenBank BQ031006, vs mice given only isoproterenol
  FC Headcase homolog (Heca): −2.2
GenBank BQ174721, vs mice given only isoproterenol
  FC SERTA domain containing 4 (Sertad4): 2.0
GenBank BQ176399, vs mice given only isoproterenol
  FC EST: −1.6
GenBank BQ176610, vs mice given only isoproterenol
  FC Sema domain, seven thrombospondin repeats (type 1 and type 1-like), transmembrane domain (TM) and short cytoplasmic domain, (semaphorin) 5A (Sema5a): −3.9
GenBank C77858, heart, drug + isoproterenol vs isoproterenol-only mice, CH vs normal FC 2.1
  FC Transmembrane protein 38B (Tmem38b): −1.5 fold
GenBank C79823, vs mice given only isoproterenol
  FC Mitochondrial ribosomal protein L45 (Mrpl45): 2.4
GenBank D17444, vs mice given only isoproterenol
  FC Leukemia inhibitory factor receptor (Lifr): −2.0
GenBank D63902, heart, drug + isoproterenol vs isoproterenol-only mice, CH vs normal FC 1.7
  FC Tripartite motif protein 25 (Trim25): −2.1 fold
GenBank L20048, vs mice given only isoproterenol
  FC L20048: −1.9
GenBank M12481, vs mice given only isoproterenol
  FC Cytoplasmic beta-actin (Actb): 3.1
GenBank M30697, vs mice given only isoproterenol
  FC Multidrug resistae protein (MDR) (Acb1a): −2.6
GenBank NM_007434, heart, drug + isoproterenol vs isoproterenol-only mice, CH vs normal FC −1.8
  FC Thymoma viral proto-oogene 2 (Akt2): 1.7 fold
GenBank NM_007897, vs mice given only isoproterenol
  FC Early B-cell factor (Ebf1): 2.1
GenBank NM_007945, vs mice given only isoproterenol
  FC Epidermal growth factor receptor pathway substrate 8 (Eps8): −1.8
GenBank NM_007987, heart, drug + isoproterenol vs isoproterenol-only mice, CH vs normal FC 2.8
  FC Tumor necrosis factor receptor superfamily, member 6 (Tnfrsf6) (Fas): −2.4 fold
GenBank NM_008129, vs mice given only isoproterenol
  FC Glutamate-cysteine ligase, modifier subunit (Gclm): −1.8
GenBank NM_008416, vs mice given only isoproterenol
  FC Jun-B oogene (Junb): −2.0
GenBank NM_008419, vs mice given only isoproterenol
  FC Potassium voltage-gated channel, shaker-related subfamily, member 5 (Kcna5): −2.4
GenBank NM_008808, vs mice given only isoproterenol
  FC NM_008808: 1.7
GenBank NM_008880, vs mice given only isoproterenol
  FC Pphospholipid scramblase 2 (Plscr2): −1.8
GenBank NM_009114, vs mice given only isoproterenol
  FC S100 calcium binding protein A9 (calgranulin B) (S100a9): −14.0
GenBank NM_009446, heart, drug + isoproterenol vs isoproterenol-only mice, CH vs normal FC −1.9
  FC Tubulin, alpha 3 (Tuba3): 1.9 fold
GenBank NM_009447 (first entry, r874), heart, drug + isoproterenol vs isoproterenol-only mice, CH vs normal FC −4.3
  FC Tubulin, alpha 4 (Tuba4): 4.7 fold
GenBank NM_009447 (second entry, r876), heart, drug + isoproterenol vs isoproterenol-only mice, CH vs normal FC −6.2
  FC Tubulin, alpha 4 (Tuba4): 5.8 fold
GenBank NM_010286, vs mice given only isoproterenol
  FC Glucocorticoid-induced leucine zipper (Gilz) (Dsip1): −2.5
GenBank NM_010741, vs mice given only isoproterenol
  FC Lymphocyte antigen 6 complex, locus C (Ly6c): −2.1
GenBank NM_010809, vs mice given only isoproterenol
  FC Matrix metalloproteinase 3 (Mmp3): −2.9
GenBank NM_010929, vs mice given only isoproterenol
  FC Notch gene homolog 4, (Drosophila) (Notch4): −2.2
GenBank NM_011172, vs mice given only isoproterenol
  FC Proline dehydrogenase (Prodh): −2.0
GenBank NM_011338, vs mice given only isoproterenol
  FC Small inducible cytokine A9 (Scya9) (Ccl9) (Mip-1[…]): −2.1
GenBank NM_013562, vs mice given only isoproterenol
  FC Interferon-related developmental regulator 1 (Ifrd1): −1.6
GenBank NM_013594, vs mice given only isoproterenol
  FC Methyl-CpG binding domain protein 1 (Mbd1): −2.6
GenBank NM_013602, vs mice given only isoproterenol
  FC Metallothionein 1 (Mt1): −2.4
GenBank NM_013650, vs mice given only isoproterenol
  FC S100 calcium binding protein A8 (calgranulin A) (S100a8): −19.9
GenBank NM_016693, vs mice given only isoproterenol
  FC Mitogen-activated protein kinase kinase kinase 6 (Map3k6): −3.2
GenBank NM_017379, heart, drug + isoproterenol vs isoproterenol-only mice, CH vs normal FC −3.3
  FC Tubulin, alpha 8 (Tuba8): 3.1 fold
GenBank NM_018866, vs mice given only isoproterenol
  FC Small inducible cytokine subfamily B (Cys-X-Cys), member 13 (Scyb13) (Cxcl13): −4.4
GenBank NM_019662, vs mice given only isoproterenol
  FC Ras-related associated with diabetes (Rrad): 2.4
GenBank NM_019798, vs mice given only isoproterenol
  FC Phosphodiesterase 4A, cAMP specific (Pde4a): 1.8
GenBank NM_021297, heart, drug + isoproterenol vs isoproterenol-only mice, CH vs normal FC 3.2
  FC Toll-like receptor 4 (TLR4): −2.6 fold
GenBank NM_021398, vs mice given only isoproterenol
  FC Solute carrier family 43, member 3 (Slc43a3): −2.0
GenBank NM_021484, heart, drug + isoproterenol vs isoproterenol-only mice, CH vs normal FC 4.8
  FC Titin immunoglobulin domain protein (Myotilin, Myot): −3.0 fold
GenBank NM_021566, vs mice given only isoproterenol
  FC Jutophilin 2 (Jph2): 2.1
GenBank NM_021897, heart, drug + isoproterenol vs isoproterenol-only mice, CH vs normal FC 4.8
  FC Transformation related protein 53 inducible nuclear protein 1 (Trp53inp1): −3.5 fold
GenBank NM_022331, vs mice given only isoproterenol
  FC Homocysteine-inducible, endoplasmic reticulum stress-inducible, ubiquitin-like domain member 1 (Herpud1): −3.0
GenBank NM_023462, vs mice given only isoproterenol
  FC Retinol binding protein 7, cellular (Rbp7): −1.6
GenBank NM_023719, heart, drug + isoproterenol vs isoproterenol-only mice, CH vs normal FC 1.8
  FC Thioredoxin interacting protein (Txnip): −3.5 fold
GenBank NM_026346, vs mice given only isoproterenol
  FC F-box only protein 32 (Fbxo32): −4.7
GenBank NM_026835, vs mice given only isoproterenol
  FC Membrane-spanning 4-domains, subfamily A, member 6d (Ms4a6d): −2.2
GenBank NM_027209, vs mice given only isoproterenol
  FC Membrane-spanning 4-domains, subfamily A, member 6B (Ms4a6b): −1.7
GenBank NM_029796, vs mice given only isoproterenol
  FC Leucine-rich alpha-2-glycoprotein (Lrg-pending): −2.9
GenBank NM_030614, vs mice given only isoproterenol
  FC Fibroblast growth factor 16 (Fgf16): 2.8
GenBank NM_053085, heart, drug + isoproterenol vs isoproterenol-only mice, CH vs normal FC 3.5
  FC Transcription factor 23 (Tcf23): −2.3 fold
GenBank NM_054037, vs mice given only isoproterenol
  FC Secretoglobin, family 3A, member 1 (Scgb3a1): −2.2

From patent US20080305186A1, “Method and Composition for the Treatment of Cardiac Hypertrophy” (BOARD OF REGENTS, THE UNIVERSITY OF TEXAS SYSTEM, priority 2007, published 2008)
